How the values were obtained:
ASIC1a [1] = molecular target: T1, ASIC1a (Homo sapiens, UniProt P78348); assay: Calcium imaging of MES-induced calcium response (FLIPR); assay type: cell-based; set-up: host or cells: HEK293; settings: ASIC1a expressing HEK293 cells, MES-induced calcium response; read-out: IC50 (FLIPR)
T1 sequence (P78348 1-528): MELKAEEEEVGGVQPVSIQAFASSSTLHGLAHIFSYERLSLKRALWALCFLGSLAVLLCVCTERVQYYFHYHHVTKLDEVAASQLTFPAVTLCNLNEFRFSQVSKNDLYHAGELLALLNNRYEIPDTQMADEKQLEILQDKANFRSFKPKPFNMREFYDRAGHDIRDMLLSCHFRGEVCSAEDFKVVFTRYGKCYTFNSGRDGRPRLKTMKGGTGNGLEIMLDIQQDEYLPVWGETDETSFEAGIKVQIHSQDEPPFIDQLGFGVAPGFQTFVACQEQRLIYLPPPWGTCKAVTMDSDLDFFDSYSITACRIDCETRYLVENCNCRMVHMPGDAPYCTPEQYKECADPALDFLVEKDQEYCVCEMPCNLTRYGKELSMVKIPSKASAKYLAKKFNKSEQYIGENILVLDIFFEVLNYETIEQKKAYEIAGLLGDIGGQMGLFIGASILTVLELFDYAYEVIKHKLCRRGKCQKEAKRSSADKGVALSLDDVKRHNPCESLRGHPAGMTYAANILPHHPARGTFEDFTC

ASIC1a [2] = molecular target: T1, ASIC1a; assay: Two-electrode voltage clamp in Xenopus laevis oocytes (Xo), acid-induced currents; assay type: cell-based; set-up: expressed in transfected cells; host or cells: Xenopus laevis oocytes (nuclear microinjection of expression vector such as pcDNA3); settings: Xenopus oocytes; for inhibition at 50 µM: read-out: % inh. at 50 μM (Xo)
Protocol: Two-electrode voltage clamp electrophysiological assays in Xenopus laevis oocytes expressing gated ion channels are performed as follows:
Oocytes are surgically removed from adult Xenopus laevis and treated for 2 h at room temperature with 1 mg/ml type I collagenase (Sigma) in Barth's solution under mild agitation. Selected oocytes at stage IV-V are defolliculated manually before nuclear microinjection of 2.5-5 ng of a suitable expression vector, such as pcDNA3, comprising the nucleotide sequence encoding a gated ion channel subunit protein. In such an experiment, the oocytes express homomultimeric proton-gated ion channels on their surface. In an alternate experiment, one, two, three or more vectors comprising the coding sequences for distinct gated ion channel subunits are co-injected in the oocyte nuclei. In the latter case, oocytes express heteromultimeric proton-gated ion channels. For example, ASIC2a and/or ASIC3 subunits in pcDNA3 vector are co-injected at a 1:1 cDNA ratio. After 2-4 days of expression at 19° C. in Barth's solution containing […] gentamicin and 1.8 mM CaCl2, gated ion channels are activated by applying an acidic solution (pH<7) and currents are recorded in a two electrode voltage-clamp configuration, using an OC-725B amplifier (Warner Instruments). Currents are acquired and digitized at 500 Hz on an Apple Imac G3 computer with an A/D NB-MIO-16XL interface (National Instruments) and recorded traces are post-filtered at 100 Hz in Axograph (Axon Instruments) (Neher, E. and Sakmann, B. (1976) Nature 260:799-802). Once impaled with the microelectrodes, oocytes are continuously superfused at 10-12 ml/min with a modified Ringer's solution containing 97 mM NaCl, 2 mM KCl, 1.8 mM CaCl2, and 10 mM HEPES brought to pH 7.4 with NaOH (Control Ringer). Test Ringer solution is prepared by replacing HEPES with MES and adjusting the pH to the desired acidic value. Compounds of the present invention are prepared in both the Control and Test Ringer solutions and applied to oocytes at room temperature through a computer-controlled switching valve system. Osmolarity of all solutions is adjusted to 235 mOsm with choline chloride. Similarly, recordings can also be acquired in an automated multichannel oocytes system as the OpusExpress™ (Molecular Devices, Sunnyvale, USA).
FIGS. 1A and 2A illustrate the inhibitory effects of Compounds 203 and 206 on acid-induced activation of recombinant homomeric hASIC1a channels.

| IC50 (ASIC1a [1]) [µM] | inhibition at 50 µM (ASIC1a [2]) [%] | inhibition at 100 µM (ASIC1a [2]; 100 μM, read-out: % inh. at 100 μM (Xo)) [%] | Structure (SMILES) |
| --- | --- | --- | --- |
| > 70 | < 25 |  | CC(C)(C)OC(=O)N1CCc2c(-c3ccccc3)ccc(C(=O)O)c2C1 [Compound 182] |
| > 70 | < 25 |  | O=[N+]([O-])c1ccc(-c2ccccc2)c2ccncc12 [Compound 135] |
| > 70 | < 25 |  | CN1CCc2c(-c3ccccc3)cc(C(=O)O)c(N)c2C1 [Compound 141] |
| > 70 | < 25 |  | CCOC(=O)CNc1ccc(-c2ccccc2)c2c1CN(C(=O)OCC)CC2 [Compound 140] |
| > 70 | 40 to 60 |  | COc1ccc(C=O)cc1-c1cc2c(c3c1CCN(C)C3)NC(=O)/C2=N/O [Compound 30] |
| > 70 | < 25 |  | CCOC(=O)N1CCc2c(-c3ccccc3)ccc(CN)c2C1 [Compound 120] |
| > 70 | < 25 |  | CCOC(=O)CNCc1ccc(-c2ccccc2)c2c1CN(C(=O)OCC)CC2 [Compound 121] |
| > 70 | < 25 |  | CN1CCc2c(-c3ccccc3)cc3c(c2C1)NC(=O)/C3=C/c1ccc(C(=O)O)cc1 [Compound 83] |
| > 70 | < 25 |  | CN1CCc2c(-c3ccccc3)cc3c(c2C1)NC(=O)/C3=C/c1cccc(O)c1 [Compound 85] |
| > 70 | < 25 |  | CN1CCc2c(-c3ccccc3)ccc(NCCC(=O)O)c2C1 [Compound 151] |
| > 70 | 30 to 50 |  | CN1CCc2c(-c3ccccc3)cc3c(c2C1)NC(=O)/C3=N/NC(N)=S [Compound 104] |
| > 70 |  | > 50 | CCOC(=O)N1CCc2c(Br)ccc([N+](=O)[O-])c2C1 [Compound 157] |
| 50 to 70 | < 25 |  | CCOC(=O)CN(C(C)=O)c1ccc(-c2ccccc2)c2c1CN(C(=O)OCC)CC2 [Compound 139] |
| > 70 | < 25 |  | CN1CCc2c(-c3ccccc3)ccc(NC(=O)CCC(=O)O)c2C1 [Compound 134] |
| > 70 | < 25 |  | COC(=O)c1cc(-c2ccccc2)c2c(c1C(=O)OC)CN(C(=O)OC(C)(C)C)CC2 [Compound 179] |
| > 70 | 20 to 40 |  | CCOC(=O)N1CCc2c(-c3ccccc3)ccc([N+](=O)[O-])c2C1 [Compound 161] |
| > 70 | < 25 |  | CN1CCc2c(-c3ccccc3)ccc(CNCC(=O)O)c2C1 [Compound 119] |
| > 70 | < 25 |  | CN1CCc2c(-c3ccccc3)cc(C#N)c(NC(=O)OC(C)(C)C)c2C1 [Compound 130] |
| > 70 | < 25 |  | CN1CCc2c(-c3ccccc3)cc3c(c2C1)NC(=O)/C3=C/c1cccc(C(=O)O)c1 [Compound 84] |
| > 70 | < 25 |  | COc1ccc(NC(=O)NCc2ccc(-c3ccccc3)c3c2CN(C)CC3)cc1 [Compound 117] |

The remaining lines, values behind:

| Structure (SMILES) | IC50 (ASIC1a [1]) [µM] | inhibition at 50 µM (ASIC1a [2]) [%] | inhibition at 100 µM (ASIC1a [2]; 100 μM, read-out: % inh. at 100 μM (Xo)) [%] |
| --- | --- | --- | --- |
| CN1CCc2c(-c3ccccc3)cc3c(c2C1)NC(=O)C31OCCO1 [Compound 76] | 20 to 40 | < 25 |  |
| CN1CCc2c(-c3ccccc3)ccc(NC(=O)OC(C)(C)C)c2C1 [Compound 129] | 50 to 70 | < 25 |  |
| CN(C)/C=C1/C(=O)Nc2c1cc(-c1ccccc1)c1c2CN(C)CC1 [Compound 95] | > 70 | < 25 |  |
| CN1CCc2c(-c3ccccc3)cc3c(c2C1)NC(=O)C3O (stereo not drawn) [Compound 79] | 20 to 40 | < 25 |  |
| CN1CCc2c(-c3ccccc3)cc3c(c2C1)NC(=O)/C3=C/c1ccccc1C(=O)O [Compound 82] | > 70 | < 25 |  |
| CN1CCc2c(-c3ccccc3)cc3c(c2C1)C(=O)N(N)C3=O [Compound 80] | > 70 | < 25 |  |
| CN1CCc2c(-c3ccccc3)cc3c(=O)[nH]c(=O)[nH]c3c2C1 [Compound 98] | > 70 | 20 to 40 |  |
| COc1ccc(F)cc1-c1cc2c(c3c1CCN(C)C3)NC(=O)/C2=N\O[C@H]1O[C@@H](CO)[C@H](O)[C@@H](O)[C@@H]1O [Compound 20] | 20 to 30 | < 25 |  |
| CCOC(=O)N1CCc2c(-c3ccccc3)cc(C(=O)CCl)c(N)c2C1 [Compound 149] | > 70 | < 25 |  |
| CN1CCc2c(-c3ccccc3)ccc(CN)c2C1 [Compound 115] | > 70 | < 25 |  |
| C/C=C1/C(=O)Nc2c1cc(-c1ccccc1)c1c2CN(C)CC1 [Compound 89] | > 70 | < 25 |  |
| CN1CCc2c(-c3ccccc3)ccc(NC(=O)CCCO)c2C1 [Compound 133] | > 70 | < 25 |  |
| COC(=O)CCC(=O)Nc1ccc(-c2ccccc2)c2c1CN(C)CC2 [Compound 132] | > 70 | < 25 |  |
| CN1CCc2c(-c3ccccc3)cc3c(c2C1)NC(=O)/C3=C/c1ccccc1 [Compound 87] | > 70 | < 25 |  |
| CCOC(=O)N1CCc2c(-c3ccccc3)ccc(NCC(=O)O)c2C1 [Compound 138] | > 70 | < 25 |  |
| CN1CCc2c(-c3ccccc3)ccc(NCC(=O)O)c2C1 [Compound 127] | > 70 | < 25 |  |

| Structure (SMILES) | IC50 (ASIC1a [1]) [µM] | inhibition at 50 µM (ASIC1a [2]) [%] | inhibition at 100 µM (ASIC1a [2]; 100 μM, read-out: % inh. at 100 μM (Xo)) [%] |
| --- | --- | --- | --- |
| CN1CCc2c(-c3ccccc3)cc(C(N)=O)c(N)c2C1 [Compound 128] | > 70 | < 25 |  |
| CN1CCc2c(-c3ccccc3)cc3c(c2C1)NC(=O)/C3=C/c1ccc(O)cc1 [Compound 88] | > 70 | < 25 |  |
| CCOC(=O)N1CCc2c(-c3ccccc3)ccc(N)c2C1 [Compound 159] | > 70 | 20 to 40 |  |
| CN1CCc2c(-c3ccccc3)ccc(Br)c2C1 [Compound 172] | 50 to 70 | < 25 |  |
| CO/N=C1/C(=O)Nc2c1cc(-c1cc(F)ccc1OC)c1c2CN(C)CC1 [Compound 24] | 20 to 30 | 40 to 60 |  |
| CCOC(=O)CNc1ccc(-c2ccccc2)c2c1CN(C)CC2 [Compound 126] | 20 to 40 | < 25 |  |
| CCOC(=O)/C=N\c1ccc(-c2ccccc2)c2c1CN(C)CC2 [Compound 124] | > 70 | < 25 |  |
| CN1CCc2c(-c3ccccc3)cc3[nH]c(=O)[nH]c3c2C1 [Compound 99] | > 70 | < 25 |  |
| Nc1ccc(-c2ccccc2)c2ccncc12 [Compound 136] | > 70 | < 25 |  |
| CN1CCc2c(-c3ccccc3)cc3c(c2C1)NC(=O)/C3=C/C(=O)O [Compound 91] | > 70 | < 25 |  |
| CN1CCc2c(-c3ccccc3)cc([N+](=O)[O-])c(N)c2C1 [Compound 155] | 40 to 70 | < 25 |  |
| CCOC(=O)C(=O)Nc1ccc(-c2ccccc2)c2c1CN(C)CC2 [Compound 162] | > 70 | < 25 |  |
| CN1CCc2c(-c3ccccc3)cc3c(c2C1)NC(=O)C3 [Compound 81] | > 70 | 20 to 40 |  |
| CN1CCc2c(-c3ccccc3)ccc(C#N)c2C1 [Compound 178] | > 70 | < 25 |  |
| CC(=O)Nc1c(N)cc(-c2ccccc2)c2c1CN(C)CC2 [Compound 156] | > 70 | < 25 |  |
